Consider 3 molecules from patent US5583113A, “Use of a direct-acting thrombin inhibitor for the manufacture of a medicinal product having thrombolytic activity” (Synthelabo, priority 1992, dated 1996).

This experiment deals with electrical stimulation induced occlusive aortic thrombosis. Put plainly: Thrombolytic activity in a rat model of electrical stimulation induced occlusive aortic thrombosis. Type of experiment: in vivo, CD rats. Conditions: for Area under the curve (cm^2 ± s.e.m.): area under the blood flow trace; for Area under the curve (cm^2 ± s.e.m.) / Number of animals showing thrombolyis: n=8; for Thrombolytic activity (result in words): in the absence of exogenous plasminogen activators. As to the method:
The compounds which are usable according to the invention were studied in rats for their activity as thrombolytic agents in a model of electrical stimulation induced occlusive aortic thrombosis.
CD rats weighing 450 g to 500 g are anaesthetized with sodium pentobarbital (60 mg/kg i.p.) and the left renal artery is catheterized. Thrombosis is induced according to the method described by Hladovec (Throm. Haemosts. (1971), 26, 407-410). A segment of abdominal aorta approximately 1 cm in length is exposed between the renal artery and the iliac bifurcation, and an electromagnetic flow probe is placed around this segment to measure blood flow rate, and a bipolar electrode is placed downstream of the probe. After 15 minutes of stabilisation, a 5 mA direct current is applied for 5 minutes to the outer surface of the artery using a stimulator. When the flow rate reaches the zero value, previously determined by clamping the artery between the probe and the electrode, the time to formation of an occlusive thrombus is noted. After 5 minutes of stabilisation of the thrombus, the test compound or the vehicle is injected via the catheter as a 0.5 ml bolus followed by a 60 minute perfusion at 0.1 ml/min. The blood flow rate is recorded during the perfusion period. Thrombolysis is estimated by measuring the area under the blood flow trace, which reflects both the time to, and the extent of recanalisation. The results are expressed as a mean #standard error of the mean.
In animals receiving the vehicle, the abdominal aorta remains occluded throughout the period of administration. In contrast, direct acting thrombin inhibitors increase the area under the curve in a dose-dependent manner and rapidly restore blood flow.

The mark [1] stands for this setting: dose 100 + 20 μg/kg + μg/kg/min.
The mark [2] stands for this setting: dose 100 + 20 μg/kg + μg/kg/min (bolus + 60 minute perfusion).
[3] abbreviates: dose 200 + 40 μg/kg + μg/kg/min.
Setting [4] is: dose 200 + 40 μg/kg + μg/kg/min (bolus + 60 minute perfusion).
[5] abbreviates: dose 400 + 80 μg/kg + μg/kg/min.

On to `CC(=O)N[C@H](Cc1ccccc1)C(=O)N1CCC[C@H]1C(=O)N[C@@H](CCCN=C(N)N)B(O)O` [DUP714, Ac-(D-Phe)-Pro-boro-Arg-OH], for which the “Thrombolytic activity (result in words)” value is “have shown thrombolytic activity”. Also, under setting [1], the “% Increase (area under the curve vs vehicle)” value (shortened to “% Increase”) was 620% and the “Number of animals showing thrombolyis” value was 5. For the same molecule, the “Area under the curve (cm^2 ± s.e.m.)” value under setting [2] is 339.7 ± 84.7 cm^2. In addition, under setting [3], the “% Increase” value amounted to 667% and the “Number of animals showing thrombolyis” value amounted to 7. Further, under setting [4], the “Area under the curve (cm^2 ± s.e.m.)” value is recorded as 362.3 ± 61.1 cm^2. Under setting [5], the “% Increase” value is reported as 1118% and the “Number of animals showing thrombolyis” value is 8. In addition, under “dose 400 + 80 μg/kg + μg/kg/min (bolus + 60 minute perfusion)”, the “Area under the curve (cm^2 ± s.e.m.)” value was found to be 575.3 ± 99.0 cm^2.

Regarding `NC(N)=NCCC[C@H](NC(=O)[C@@H]1CCCN1C(=O)[C@H](N)Cc1ccccc1)C(=O)CCl` [PPACK, D-Phe-Pro-Arg chloromethyl ketone], the “Thrombolytic activity (result in words)” value is “have shown thrombolytic activity”. Moreover, under “dose 50 + 10 μg/kg + μg/kg/min”, the “% Increase” value is listed as 572% and the “Number of animals showing thrombolyis” value came out at 5. The “Area under the curve (cm^2 ± s.e.m.)” value (dose 50 + 10 μg/kg + μg/kg/min (bolus + 60 minute perfusion)) amounted to 291.7 ± 96.5 cm^2. In addition, under setting [1], the “% Increase” value turned out to be 556% and the “Number of animals showing thrombolyis” value is reported as 5. Besides, the “Area under the curve (cm^2 ± s.e.m.)” value under setting [2] was 284.8 ± 98.9 cm^2. Under setting [3], the “% Increase” value amounted to 1148% and the “Number of animals showing thrombolyis” value came out at 7. Moreover, under setting [4], the “Area under the curve (cm^2 ± s.e.m.)” value worked out at 542.7 ± 75.2 cm^2.

Turning to `CC1CNc2c(cccc2S(=O)(=O)N[C@@H](CCCNC(=N)N)C(=O)N2CC[C@@H](C)C[C@@H]2C(=O)O)C1` (stereo partly drawn) [Argatroban, argatroban], the “Thrombolytic activity (result in words)” value is “have shown thrombolytic activity”. For the same molecule, under “dose 25 + 5 μg/kg + μg/kg/min”, the “% Increase” value was 284% and the “Number of animals showing thrombolyis” value came to 4. The “Area under the curve (cm^2 ± s.e.m.)” value (dose 25 + 5 μg/kg + μg/kg/min (bolus + 60 minute perfusion)) is 137.5 ± 45.6 cm^2. Under setting [1], the “% Increase” value is given as 406% and the “Number of animals showing thrombolyis” value worked out at 3. Further, the “Area under the curve (cm^2 ± s.e.m.)” value under setting [2] worked out at 181.1 ± 99.6 cm^2. Under setting [3], the “% Increase” value is recorded as 1186% and the “Number of animals showing thrombolyis” value worked out at 7. Under setting [4], the “Area under the curve (cm^2 ± s.e.m.)” value was 460.3 ± 86.5 cm^2.
